From patent US20220127232A1, “HISTONE ACETYLTRANSFERASE MODULATORS AND COMPOSITIONS AND USES THEREOF” (The Trustees of Columbia University in the City of New York, priority 2019, published 2022)
Entries after “also recorded” stand apart in the source; their conditions may differ.

How the values were obtained:
p300 = p300 (Homo sapiens, UniProt Q09472); assay: Histone Acetyltransferase (HAT) in vitro acetylation assay, western blot of H3K27ac / H3K18ac; format: biochemical; conditions: compound in DMSO
Method: The aim of the in vitro acetylation assay is to measure the enzymatic activity of the various compounds towards p300.
First, the drug is prepared:
Second, dilute p300 in AM1 buffer to a concentration of 40 ng/μL (final concentration in the reaction 20 ng/μL). This is accomplished by diluting 1 μL of p300 (at 0.4 μg/μL) into […] of AM1 buffer.
Third, prepare the Master Mix. Prepare the Master Mix in low protein binding tubes (ThermoFisher Cat. No. 90410), 20 μL system.
Incubate reactions at 30° C. for 30 minutes.
Incubate reactions at 30° C. for 1 hour.
Fourth, perform the western blot assay. • Add 6.7 μL of Laemmli Sample Buffer 4× (Bio-Rad Laboratories Cat. No. 161-0737) for each reaction and boil samples at 95° C. for 5 min. • Charge 10 μL for each sample in 2 Tris Glycine 4-15% gels (Bio-Rad Laboratories Cat. No. 456-1086). Running Buffer: Tris-Glycine 1× (pour in the cell up to the writing “2 gels”). • Run at 90 V for 1 hour (until the gel front reaches the green line of cell). • Semi-dry transfer with Trans-Blot® Turbo™ Blotting System from Bio-Rad Laboratories (Trans-Blot® Turbo™ RTA midi PVDF transfer kit Cat. No1704275). • Activate PVDF membrane in methanol for 5 minutes and then wet in Trans-Blot® Turbo™ transfer buffer. • Wet stacks in transfer buffer. • Transfer at 23 V 1.3 A for 7 minutes. • Blocking buffer: 5% Non-Fat milk in TBST (tween 0.1%) 1 hour at room temperature. • Cut the membranes to get Ac-His 3 at 17 kDa and p300 at 300 kDa. • Incubate with primary antibodies overnight at 4° C. • The day after, make 3 washes in TBST (Tween 0.1%) of 10 minutes. • Incubate with secondary antibody at room temperature for 1 hour. • Make 3 washes in TBST (Tween 0.1%) of 5 minutes. • Incubate membranes with ECL (SuperSignal West Dura Extended Duration Substrate from ThermoFisher) for 5 minutes at room temperature. • Acquire the image with ChemiDoc Odyssey Fc 2 minutes.
To detect total H3 (loading control), strip the membranes with Restore™ Western Blot Stripping Buffer according to the manufacturer protocol.
Various compounds were tested for enzymatic activity with respect to Lys 18 and Lys 27. EC50 is indicated for Activators and IC50 for inhibitors respectively.
FIGS. 1A to 25B are graphs showing the lysine residue acetylation as a function of concentration for the compounds set forth in Table 3. The shaded area corresponds to the average values of lysine residue acetylation (continuous line) and their standard error range measured in the absence of compound and DMSO. The number of replicates is represented by “n”.

mice = assay: 2 day radial arm water maze (RAWM), spatial short-term memory; format: in vivo
Method: Synaptic plasticity is thought to underlie memory formation. RA010115 was also tested in assays aimed at determining whether the compound can be beneficial to two types of memory, short-term spatial memory that can tested through the 2 day radial arm water maze, and contextual fear memory, a type of associative memory that depends upon hippocampal function and is impaired in AD patients. FIG. 27 is a graph showing that RA010115 rescues oTau- and oAβ-induced defects in the 2-day radial arm water maze test of spatial short-term memory. The performance in the RAWM was impaired in mice administered with oAβ (200 nM) oTau (500 nM). […] The performance was not impaired when mice were treated with only RA010115 or vehicle. (ANOVA for repeated measures among all groups at day 2: F(5, 65)=7.092, p<0.0001. One-way ANOVA for block 10: F(5, 65)=7.385, p<0.0001; Bonferroni's p<0.0001 for both oAβ vs. vehicle and oTau vs. vehicle; oAβ vs RA010115 plus oAβ p<0.001 and for oTau vs RA010115 plus oTau p<0.05.

Chain of p300 (Q09472 whole entry, species assumed): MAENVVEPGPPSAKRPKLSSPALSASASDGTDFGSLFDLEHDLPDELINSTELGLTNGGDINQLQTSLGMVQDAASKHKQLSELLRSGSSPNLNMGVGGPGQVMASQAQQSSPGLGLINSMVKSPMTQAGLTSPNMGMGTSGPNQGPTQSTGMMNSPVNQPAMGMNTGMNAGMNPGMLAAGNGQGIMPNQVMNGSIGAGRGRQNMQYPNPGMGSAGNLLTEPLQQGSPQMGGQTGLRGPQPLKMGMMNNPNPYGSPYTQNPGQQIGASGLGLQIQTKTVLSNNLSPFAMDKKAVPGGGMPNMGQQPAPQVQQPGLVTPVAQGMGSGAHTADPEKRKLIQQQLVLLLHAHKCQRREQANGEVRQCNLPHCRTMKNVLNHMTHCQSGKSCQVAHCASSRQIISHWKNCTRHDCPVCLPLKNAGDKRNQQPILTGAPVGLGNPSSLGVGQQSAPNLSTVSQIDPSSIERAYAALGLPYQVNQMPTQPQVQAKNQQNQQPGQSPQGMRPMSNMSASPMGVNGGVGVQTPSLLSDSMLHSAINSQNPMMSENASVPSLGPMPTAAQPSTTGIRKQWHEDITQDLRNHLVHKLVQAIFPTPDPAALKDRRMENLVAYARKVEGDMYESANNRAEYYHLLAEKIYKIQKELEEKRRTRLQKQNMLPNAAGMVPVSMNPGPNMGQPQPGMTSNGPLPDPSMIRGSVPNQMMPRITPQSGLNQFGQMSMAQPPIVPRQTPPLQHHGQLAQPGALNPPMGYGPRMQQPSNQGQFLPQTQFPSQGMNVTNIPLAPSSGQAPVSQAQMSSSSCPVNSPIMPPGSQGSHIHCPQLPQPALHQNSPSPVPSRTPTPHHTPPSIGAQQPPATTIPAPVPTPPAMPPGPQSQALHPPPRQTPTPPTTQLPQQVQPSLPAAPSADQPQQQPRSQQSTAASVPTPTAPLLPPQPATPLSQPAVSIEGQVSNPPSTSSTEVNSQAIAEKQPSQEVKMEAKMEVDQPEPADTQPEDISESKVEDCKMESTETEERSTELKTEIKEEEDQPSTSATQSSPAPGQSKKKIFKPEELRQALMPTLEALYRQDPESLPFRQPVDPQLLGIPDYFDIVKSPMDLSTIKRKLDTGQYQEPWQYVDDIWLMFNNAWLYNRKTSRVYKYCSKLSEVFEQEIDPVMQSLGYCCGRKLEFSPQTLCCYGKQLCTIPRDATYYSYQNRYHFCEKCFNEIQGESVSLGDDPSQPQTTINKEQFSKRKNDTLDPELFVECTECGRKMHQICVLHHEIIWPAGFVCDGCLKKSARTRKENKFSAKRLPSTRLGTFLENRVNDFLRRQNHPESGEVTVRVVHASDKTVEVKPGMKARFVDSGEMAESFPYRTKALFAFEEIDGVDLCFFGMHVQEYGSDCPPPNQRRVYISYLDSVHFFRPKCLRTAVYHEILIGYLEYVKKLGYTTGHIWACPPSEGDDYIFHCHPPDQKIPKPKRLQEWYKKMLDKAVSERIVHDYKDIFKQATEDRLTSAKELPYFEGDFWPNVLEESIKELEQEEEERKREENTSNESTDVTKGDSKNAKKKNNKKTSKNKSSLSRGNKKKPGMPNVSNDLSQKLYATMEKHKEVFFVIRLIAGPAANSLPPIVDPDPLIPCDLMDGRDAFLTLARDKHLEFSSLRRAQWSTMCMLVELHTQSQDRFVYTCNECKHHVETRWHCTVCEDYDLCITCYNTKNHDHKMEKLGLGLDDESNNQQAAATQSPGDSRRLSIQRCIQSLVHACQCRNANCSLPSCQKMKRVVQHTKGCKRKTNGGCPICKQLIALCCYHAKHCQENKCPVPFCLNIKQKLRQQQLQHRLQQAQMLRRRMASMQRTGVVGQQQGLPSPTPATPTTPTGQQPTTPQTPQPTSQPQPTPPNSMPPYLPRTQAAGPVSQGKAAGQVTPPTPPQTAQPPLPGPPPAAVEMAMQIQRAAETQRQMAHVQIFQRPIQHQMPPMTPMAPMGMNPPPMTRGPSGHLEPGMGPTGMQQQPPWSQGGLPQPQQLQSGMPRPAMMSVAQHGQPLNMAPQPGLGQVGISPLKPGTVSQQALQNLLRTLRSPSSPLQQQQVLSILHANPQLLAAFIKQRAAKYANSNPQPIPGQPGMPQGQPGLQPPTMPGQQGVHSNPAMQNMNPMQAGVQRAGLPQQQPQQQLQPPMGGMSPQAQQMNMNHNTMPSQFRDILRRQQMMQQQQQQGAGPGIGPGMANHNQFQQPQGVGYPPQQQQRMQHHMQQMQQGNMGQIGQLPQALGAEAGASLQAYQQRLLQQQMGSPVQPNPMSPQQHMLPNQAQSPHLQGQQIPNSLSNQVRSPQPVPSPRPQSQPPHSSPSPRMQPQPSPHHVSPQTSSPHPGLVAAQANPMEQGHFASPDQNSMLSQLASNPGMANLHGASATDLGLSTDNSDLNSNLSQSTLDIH

## COc1cccc(OC)c1C(=O)Nc1ccc(Cl)c(C(F)(F)F)c1 [RA010115]
p300; EC50 for activators
  H3-Lys 27 EC50: NO ACTIVITY
p300; EC50 for activators, read-out: H3-Lys 18 EC50
  EC50: 137 nM
p300; IC50 for inhibitors
  H3-Lys 27 IC50: NO ACTIVITY
mice; mice administered oAβ (200 nM) or oTau (500 nM), compound 5 mg/kg, 5 mg/kg
  oTau- and oAβ-induced defects in RAWM performance: rescued the deficit; also recorded: rescues
mice; mice treated with only compound
  RAWM performance, compound alone: not impaired
